Source: PubChem BioAssay (NCI)
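In this assay, cells in 96-well plates receive the compound at five concentrations for 48 hours. Endpoints are linearly interpolated between the surrounding concentrations. The concentration for full growth arrest is given as TGI.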

Columns and labels:
Assay in all cases: NCI tumour cell line growth inhibition, 48 h
OVCAR-5 ovarian = tested on: OVCAR-5 ovarian
SK-OV-3 ovarian = tested on: SK-OV-3 ovarian
NCI/ADR-RES ovarian = tested on: NCI/ADR-RES ovarian
SW-620 colon = tested on: SW-620 colon
SK-MEL-2 melanoma = tested on: SK-MEL-2 melanoma
DU-145 prostate = tested on: DU-145 prostate
TK-10 renal = tested on: TK-10 renal
KM12 colon = tested on: KM12 colon
786-0 renal = tested on: 786-0 renal
M14 melanoma = tested on: M14 melanoma
UO-31 renal = tested on: UO-31 renal
EKVX NSCLC = tested on: EKVX NSCLC
MALME-3M melanoma = tested on: MALME-3M melanoma
U251 CNS = tested on: U251 CNS
SNB-19 CNS = tested on: SNB-19 CNS
HCC-2998 colon = tested on: HCC-2998 colon
RXF 393 renal = tested on: RXF 393 renal
UACC-257 melanoma = tested on: UACC-257 melanoma
BT-549 breast = tested on: BT-549 breast

Row | Structure (SMILES) | TGI (OVCAR-5 ovarian) | TGI (SK-OV-3 ovarian) | TGI (NCI/ADR-RES ovarian) | TGI (SW-620 colon) | TGI (SK-MEL-2 melanoma) | TGI (DU-145 prostate) | TGI (TK-10 renal) | TGI (KM12 colon) | TGI (786-0 renal) | TGI (M14 melanoma) | TGI (UO-31 renal) | TGI (EKVX NSCLC) | TGI (MALME-3M melanoma) | TGI (U251 CNS) | TGI (SNB-19 CNS) | TGI (HCC-2998 colon) | TGI (RXF 393 renal) | TGI (UACC-257 melanoma) | TGI (BT-549 breast)
1 | CCSc1n/c(=C\c2ccco2)c2nncn12 | > 100 µM | > 100 µM | > 100 µM | > 100 µM | > 100 µM | > 100 µM | > 100 µM | > 100 µM | > 100 µM | > 100 µM | > 100 µM | > 100 µM | > 100 µM | > 100 µM | > 100 µM |  |  |  | 
2 | Nc1nc(SCc2ccc([N+](=O)[O-])cc2)nc2c1ncn2C1OC(CO)C(O)C1O (stereo unspecified) | > 100 µM |  |  | > 100 µM |  |  | > 100 µM | > 100 µM | > 100 µM |  | > 100 µM | > 100 µM | > 100 µM | > 100 µM | > 100 µM | > 100 µM | > 100 µM | > 100 µM | 
3 | O=C1c2ccccc2OP(=O)(OCC(F)(F)F)OC1(C(F)(F)F)C(F)(F)F (stereo unspecified) | > 100 µM | > 100 µM |  | > 100 µM | > 100 µM |  | > 100 µM | > 100 µM | > 100 µM | > 100 µM | > 100 µM | > 100 µM |  | > 100 µM | > 100 µM | > 100 µM | > 100 µM | > 100 µM | 
4 | COc1ccc(N=Cc2ccc(N(CCC#N)S(=O)(=O)c3ccccc3)cc2)cc1 | > 100 µM | > 100 µM |  | > 100 µM | > 100 µM |  | > 100 µM | > 100 µM | > 100 µM | > 100 µM | > 100 µM | > 100 µM | > 100 µM | > 100 µM | > 100 µM |  | > 100 µM | > 100 µM | 
5 | C=CCOC(=O)NC1C(OC(C)[C@@H](NC(=O)OCc2ccccc2)C(=O)OC(C)(C)C)OC(COC(C)=O)C(OC(C)=O)C1OC(C)=O (stereo partly specified) | > 100 µM | > 100 µM | > 100 µM | > 100 µM |  | > 100 µM | > 100 µM | > 100 µM | > 100 µM | > 100 µM | 47.3 µM | > 100 µM | > 100 µM | > 100 µM | > 100 µM | > 100 µM | > 100 µM | > 100 µM | 
6 | CC[C@@H]1CC[C@@H]2[C@H](CC[C@]3(C)[C@@H](OS(=O)(=O)c4ccc(C)cc4)CC[C@@H]23)[C@H]1COS(=O)(=O)c1ccc(C)cc1 |  |  | > 100 µM | > 100 µM |  | > 100 µM | > 100 µM |  | > 100 µM | > 100 µM | > 100 µM | > 100 µM | > 100 µM | > 100 µM | > 100 µM | > 100 µM | > 100 µM | > 100 µM | > 100 µM
7 | O=S(Nc1ccccc1)c1cccc(Cl)c1 (stereo unspecified) | > 100 µM |  | > 100 µM | > 100 µM |  | > 100 µM | > 100 µM | > 100 µM | > 100 µM | > 100 µM | > 100 µM | > 100 µM | > 100 µM | > 100 µM | > 100 µM | 76.3 µM | > 100 µM | > 100 µM | 
